Measured values: US12534432B2, “Trisulfide compound” (Kyowa Pharma Chemical Co., Ltd., priority 2020, dated 2026)

Experiment: hydrogen sulfide-trapping ability by methylene blue spectrophotometry
Conditions: room temperature
Experimental: The presence or absence of a hydrogen sulfide-trapping ability (hydrogen sulfide elimination effect) of pantethine trisulfide (PANSSS) was evaluated through methylene blue spectrophotometry.
Sodium sulfide nonahydrate (Na2S·9H2O) was dissolved in purified water to prepare a 50 μmol/L sodium sulfide nonahydrate solution, which was used as a H2S standard solution.
p-Aminodimethylaniline was dissolved in 10 N sulfuric acid to prepare 1 mmol/L DPDA solution.
Iron (III) chloride hexahydrate was dissolved in 1% sulfuric acid to prepare a 3 mmol/L FeCl3·6H2O solution.
A 0.5 mmol/L pantethine trisulfide solution was prepared by dissolving pantethine trisulfide in 25 mmol/L phosphate buffer (PBS, pH 7).
10 mL of the H2S standard solution (0.5 μmol, standard) was added to a stoppered test tube and stirred. 1 mL (0.5 μmol, 1 eq.) of PBS (blank) or the pantethine trisulfide solution was added to this solution and stirred for a predetermined time (0, 5, 15 or 30 minutes). After stirring, 1 mL (1 μmol, 2 eq.) of the DPDA solution and 1 mL (3 μmol, 6 eq.) of the FeCl3·6H2O solution were added thereto and further stirred, and the absorbance (wavelength: 668 nm) of the solution was measured after the absorbance of the solution stopped changing (that is, after color development due to methylene blue production was completed). This test was conducted under the conditions of room temperature.

## CC(C)(CO)[C@@H](O)C(=O)NCCC(=O)NCCSSSCCNC(=O)CCNC(=O)[C@H](O)C(C)(C)CO [pantethine trisulfide]
0.5 μmol H2S, 1 eq. pantethine trisulfide in PBS pH 7, stirring 0, 5, 15 or 30 minutes
  absorbance (wavelength: 668 nm) compared to the blank: the longer the contact time (reaction time) between H2S and pantethine trisulfide, the lower the absorbance compared to the blank
Methylene blue spectrophotometry, 1 eq. to H2S
  hydrogen sulfide-trapping ability (hydrogen sulfide elimination effect): had a hydrogen sulfide-trapping ability
